The values that follow come from US12691070B2, “Cationic lipids and preparation method thereof” (RiboX Therapeutics HK Limited, priority 2023, dated 2026).

Each structure is given as a SMILES string.

Data set [1] deals with Hep G2 cells. Briefly: In vitro toxicity (CellTiter-Glo cell viability), Hep G2.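 Also: percent of untreated cells luminescence signal.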 The data set is classed as cell-based. In short, it runs like this:
(§1)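 Viability after a 72 h incubation with 1 μg/mL RNA-LNP formulations was assessed luminometrically using CellTiter-Glo.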
Background: In ATP-based viability assays light output follows the ATP content of the culture.

Data set [2] concerns BALB/C mice. As to the kind of experiment: Local tolerance determination by footpad injection. In kind it is in vivo. Particulars: cirRNA (SEQ ID NO: 1) LNP, 0.175 mg*kg-1 subcutaneous into the footpad, 24 hours post minus prior. On the procedure: 6-8 week old, female BALB/C mice were injected with 0.175 mg*kg-1 RNA LNPs by subcutaneous injection into the footpad. Prior to, and 24 hours post injections, injected footpad thickness was determined by a caliper.

Data set [3] deals with RAW 264.7 cells. As to the kind of experiment: In vitro expression of firefly-luciferase, RAW 264.7. The data set is classed as cell-based. The method in brief:
(§2)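 Cells were transfected with firefly-luciferase-encoding RNA-LNPs at 100 ng/mL. After 72 hours they were washed and lysed, and luciferase activity in the lysates was read by luminometry.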

In data set [4] the test system is BALB/C mice. As to the kind of experiment: In vivo expression, whole-body luminescence (IVIS). As to the method:
6-8 week old, female BALB/C mice were injected with 0.05 mg*kg-1 of RNA-LNPs encoding for firefly-luciferase by intravenous injection. At 6 hours post injection, animals were intraperitoneally injected with 15 mg/ml of Luciferin substrate and whole-body luminescence was determined by a bioluminescent in vivo imaging system (IVIS).

Data set [5] deals with RAW 264.7 cells. As to the kind of experiment: In vitro toxicity (CellTiter-Glo cell viability), RAW 264.7.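 Also: percent of untreated cells luminescence signal.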 The data set is classed as cell-based. The method in brief:
as §1

The nature of data set [6]: LNP zeta potential (Zetasizer). The data set is classed as physicochemical. In short, it runs like this: (§3)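 Ribogreen fluorescence with and without Triton X-100 gave encapsulation as 100% − (intact/lysed) signal; DLS size, PDI and zeta potential measured on a Zetasizer. Particles: 50:10:38.5:1.5 lipid mix, luciferase circRNA or mRNA, lipid:nucleotide 15 or 6, microfluidic assembly at pH 4.5, PBS-dialyzed.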

Data set [7] can be described thus: LNP size and polydispersity index (PDI) by dynamic light scattering. In kind it is physicochemical. Particulars: for Size: in nm (unit assumed). In short, it runs like this:
as §3

A short description of data set [8]: RNA encapsulation efficacy by Quant-IT Ribogreen kit. The data set is classed as physicochemical. Particulars: for Encapsulation Efficiency %: LNP with cirRNA (SEQ ID NO: 1); for Encapsulation Efficiency: LNP with mRNA (SEQ ID NO: 2). The method in brief:
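LNPs of ionizable lipid/DSPC/cholesterol/DMG-PEG 2000 (50:10:38.5:1.5) made by microfluidic mixing of luciferase circRNA or mRNA in pH 4.5 acetate with lipids in ethanol (3:1, 12 ml/min), ionizable lipid:nucleotide 15 or 6, then dialyzed against PBS. Size, PDI (DLS) and zeta potential on Zetasizer; encapsulation by Ribogreen ± Triton X-100.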

In data set [9] the test system is Hep G2 cells. Briefly: In vitro expression of firefly-luciferase, Hep G2. The data set is classed as cell-based. The method in brief:
as §2

Data set [10] deals with Alanine Aminotransferase (ALT). As to the kind of experiment: Liver enzyme elevation in serum, ALT. The data set is classed as in vivo. Particulars: cirRNA (SEQ ID NO: 1) LNPs, BALB/C mice, intravenous 0.5 MPK. As to the method:
(§4) 6-8 week old, female BALB/C mice were injected with 0.5 mg*kg-1 of RNA LNPs by intravenous injection. At 2 and 24 hours post injection, animals were bled and sera concentrations of Alanine Aminotransferase (ALT) and Aspartate Aminotransferase (AST) were determined by a blood chemistry analyzer.

Another data set deals with MCP-I. As to the kind of experiment: MCP-I cytokine elevation in serum. In kind it is in vivo. Particulars: cirRNA (SEQ ID NO: 1) LNPs, mice. As to the method: 6-8 week old, female BALB/C mice were injected with 0.5 mg*kg-1 of RNA LNPs by intravenous injection. At 2 and 24 hours post injection, animals were bled and sera concentrations of MCP-I were determined by an immunoassay (Luminex).

Data set [11] relates to Aspartate Aminotransferase (AST). Briefly: Liver enzyme elevation in serum, AST. In kind it is in vivo. Particulars: cirRNA (SEQ ID NO: 1) LNPs, BALB/C mice, intravenous 0.5 MPK. As to the method:
as §4

The nature of data set [12]: Long term stability analysis / stability under LNP synthesis conditions (Ethanol and PBS pH=7.4). The data set is classed as physicochemical. Particulars: after incorporation into lipid nanoparticles / LNP synthesis conditions. On the procedure: The purity of the lipids was tested, after they were incorporated into lipid nanoparticles, only to find that the Reference Lipids were cleaved under LNP synthesis conditions, either via transesterification or hydrolysis.

The mark [13] stands for this setting: cirRNA (SEQ ID NO: 1) LNPs, Hep G2 cells.
The mark [14] stands for this setting: mRNA (SEQ ID NO: 2) LNP, 1 μg/mL, 72 hours post transfection.
The mark [15] stands for this setting: cirRNA (SEQ ID NO: 1) LNPs, firefly-luciferase luminescence, RAW 264.7 cells.
[16] abbreviates: mRNA (SEQ ID NO: 2) LNP, 100 ng/mL, 72 hours post transfection, luciferase activity.
Where [17] appears, read: cirRNA (SEQ ID NO: 1) LNPs, BALB/C mice.
Where [18] appears, read: mRNA (SEQ ID NO: 2) LNP, 0.05 mg*kg-1 intravenous, 6 hours post injection.
[19] abbreviates: cirRNA (SEQ ID NO: 1) LNPs, RAW 264.7 cells.
The mark [20] stands for this setting: cirRNA (SEQ ID NO: 1) LNPs, firefly-luciferase luminescence, Hep G2 cells.

With `CCCCCCCCC(CCCCCC)C(=O)OCCCCCCCCN(CCCCCCCCOC(=O)C(CCCCCC)CCCCCCCC)CCCOC(=O)NCCN1CCCCC1` (centres unmarked) [Lipid 380], the “In vitro Viability HepG2” value in the data set with Hep G2 cells [1] (setting [13]) is 89%; in the data set on Hep G2 cells [1] (setting [14]), 94%. Further, in the data set on BALB/C mice [2], the “Footpad Thickness (24 h−0 h, mm)” value was 0.25 mm. The “In vitro Expression RAW” value with RAW 264.7 cells [3] (setting [15]) was 2.22E+06; in the data set on RAW 264.7 cells [3] (setting [16]), 1.45E+06. In addition, the “In vivo Expression (Whole Body)” value in the data set with BALB/C mice [4] (setting [17]) stood at 4.50E+08; with BALB/C mice [4] (setting [18]), 4.00E+08. The “In vitro Viability RAW” value with RAW 264.7 cells [5] (setting [19]) was 86%; with RAW 264.7 cells [5] (setting [14]) it was 106%. The “Zeta (mV)” value in data set [6] (LNP with cirRNA (SEQ ID NO: 1)) is −2.171 mV; in [6] (LNP with mRNA (SEQ ID NO: 2)) it was −2.552 mV. Besides, the PDI in data set [7] (LNP with cirRNA (SEQ ID NO: 1)) came out at 0.1668; in [7] (LNP with mRNA (SEQ ID NO: 2)) it was 0.02507. In addition, the Size in data set [7] (LNP with cirRNA (SEQ ID NO: 1)) was 112.8; in data set [7] (LNP with mRNA (SEQ ID NO: 2)), 88.83. Besides, the “Encapsulation Efficiency %” value in data set [8] was determined as 92%. Also, the “Encapsulation Efficiency” value in data set [8] was 80.50%. In addition, the figures for the “In vitro Expression HepG2” value in the data set with Hep G2 cells [9] (setting [20]) and in the data set with Hep G2 cells [9] (setting [16]) were 2.95E+07 and 7.30E+07, respectively. Moreover, the “ALT in Sera (IU/L) 2 hours After 0.5 MPK Injection” value in data set [10] came out at 89.33 IU/L. Also, in [10], the “ALT in Sera (IU/L) 24 hours After 0.5 MPK Injection” value is 122.00 IU/L. The “MCP-I in Sera 2 hours After 0.5 MPK Injection” value with MCP-I came out at 1168.73 pg/mL. In addition, the “MCP-I in Sera 24 hours After 0.5 MPK Injection” value in the data set on MCP-I is 1025.26 pg/mL. Moreover, the “AST in Sera (IU/L) 2 hours After 0.5 MPK Injection” value in [11] is reported as 196.33 IU/L. Further, the “AST in Sera (IU/L) 24 hours After 0.5 MPK Injection” value in data set [11] stood at 480.67 IU/L.
`CCCCCCCCC(CCCCCC)C(=O)OCCCCCCCCN(CCCCCCCCOC(=O)C(CCCCCC)CCCCCCCC)CCCOC(=O)NCCN1CCCCCC1` (centres unmarked) [Lipid 383]: the “In vitro Viability HepG2” value with Hep G2 cells [1] (setting [13]) was found to be 97%; with Hep G2 cells [1] (setting [14]), 94%. Besides, the “Footpad Thickness (24 h−0 h, mm)” value in the data set with BALB/C mice [2] was determined as 0.60 mm. In addition, the “In vitro Expression RAW” value was determined as 2.93E+06 with RAW 264.7 cells [3] (setting [15]) and 2.14E+06 in the data set with RAW 264.7 cells [3] (setting [16]). Also, the results for the “In vivo Expression (Whole Body)” value with BALB/C mice [4] (setting [17]) and in the data set with BALB/C mice [4] (setting [18]) were 4.66E+08 and 2.01E+08, respectively. Besides, the “In vitro Viability RAW” value amounted to 89% in the data set with RAW 264.7 cells [5] (setting [19]) and 94% with RAW 264.7 cells [5] (setting [14]). The figures for the “Zeta (mV)” value in [6] (LNP with cirRNA (SEQ ID NO: 1)) and in data set [6] (LNP with mRNA (SEQ ID NO: 2)) were −0.4606 mV and −13.05 mV, respectively. For the same compound, the PDI in data set [7] (LNP with cirRNA (SEQ ID NO: 1)) was determined as 0.1744; in data set [7] (LNP with mRNA (SEQ ID NO: 2)) it was 0.1802. Besides, the Size in [7] (LNP with cirRNA (SEQ ID NO: 1)) is reported as 90.41; in [7] (LNP with mRNA (SEQ ID NO: 2)), 94.23. Besides, in data set [8], the “Encapsulation Efficiency %” value was determined as 95%. In [8], the “Encapsulation Efficiency” value was found to be 86.72%. Moreover, the “In vitro Expression HepG2” value in the data set on Hep G2 cells [9] (setting [20]) is reported as 6.03E+06; with Hep G2 cells [9] (setting [16]) it was 3.97E+01. The “ALT in Sera (IU/L) 2 hours After 0.5 MPK Injection” value in data set [10] came out at 99.33 IU/L. In data set [10], the “ALT in Sera (IU/L) 24 hours After 0.5 MPK Injection” value is given as 116.00 IU/L. In addition, the “MCP-I in Sera 2 hours After 0.5 MPK Injection” value in the data set on MCP-I worked out at 5759.00 pg/mL. Besides, the “MCP-I in Sera 24 hours After 0.5 MPK Injection” value in the data set with MCP-I amounted to 2458.33 pg/mL. Also, the “AST in Sera (IU/L) 2 hours After 0.5 MPK Injection” value in data set [11] stood at 245.00 IU/L. Besides, in data set [11], the “AST in Sera (IU/L) 24 hours After 0.5 MPK Injection” value worked out at 354.67 IU/L.
For the compound `CCCCC/C=C\CCOC(=O)CCCCCCCN(CCCCCCCC(=O)OCC/C=C\CCCCC)CCOC(=O)CCCN(C)C` [Lipid C, reference compound], the “In vitro Viability HepG2” value with Hep G2 cells [1] (setting [14]) was 103%. Further, in the data set with RAW 264.7 cells [3] (setting [16]), the “In vitro Expression RAW” value stood at 4.63E+05. The “In vivo Expression (Whole Body)” value in the data set with BALB/C mice [4] (setting [18]) stood at 4.72E+05. Further, the “In vitro Viability RAW” value in the data set on RAW 264.7 cells [5] (setting [14]) is 88%. In addition, the “Zeta (mV)” value is recorded as −1.304 mV in [6] (LNP with cirRNA (SEQ ID NO: 1)) and 8.776 mV in data set [6] (LNP with mRNA (SEQ ID NO: 2)). Also, the PDI in data set [7] (LNP with cirRNA (SEQ ID NO: 1)) was found to be 0.1152; in data set [7] (LNP with mRNA (SEQ ID NO: 2)), 0.08023. The Size in data set [7] (LNP with cirRNA (SEQ ID NO: 1)) turned out to be 118.3; in data set [7] (LNP with mRNA (SEQ ID NO: 2)) it was 139.5. Besides, the “Stability of the lipid (cleavage, hydrolysis)” value in data set [12] was “extensive hydrolysis of the ester moiety”. In addition, the “Encapsulation Efficiency %” value in data set [8] was 74%. The “Encapsulation Efficiency” value in [8] came to 84.38%. Moreover, the “In vitro Expression HepG2” value in the data set with Hep G2 cells [9] (setting [20]) is reported as 8.20E+02; in the data set with Hep G2 cells [9] (setting [16]), 1.03E+04.
